Results: ChEMBL document CHEMBL1275563, “Genetic characterization of Vga ABC proteins conferring reduced susceptibility to pleuromutilins in Staphylococcus aureus” (2008)
Values after ≈ are worked out from the molar mass of the structure shown. Numbered stars: 1 amine (or outer) side, 2 acyl side, 3 side chain; on linkers, the order of the positions; unused ones are H or OH. Bridge positions count the residues as written; N and C are the ends. Square brackets hold non-standard residues; d marks the D form. Peptide text beside a SMILES is read from it. * marks the point of attachment. X1 = O=C1C[C@@H](C(=O)[*:2])N([*:1])C[C@H]1CS[C@@H]1CN2CCC1CC2; NMePhe(4-NMe2) = CN[C@@H](Cc1ccc(N(C)C)cc1)C(=O)O; Picolinoyl(3-OH) = O=C(c1ncccc1O)*; Phg = N[C@H](C(=O)O)c1ccccc1; dAbu = CC[C@@H](N)C(=O)O

Key:
[1] = system: Staphylococcus aureus; test: Antimicrobial activity against Staphylococcus aureus IV20222009 harboring vgaAv positive Tn5406 transposon; type: functional
[2] = system: Staphylococcus aureus; test: Antimicrobial activity against Staphylococcus aureus RN4220 harboring vgaAv positive plasmid CU1
[3] = system: Staphylococcus aureus; test: Antimicrobial activity against Staphylococcus aureus IV20217008 harboring vgaAv positive Tn5406 transposon; type: functional
[4] = system: Staphylococcus aureus; test: Antimicrobial activity against Staphylococcus aureus IV20205004 harboring vgaAv positive Tn5406 transposon; type: functional
[5] = system: Staphylococcus aureus; test: Antimicrobial activity against Staphylococcus aureus RN4220 harboring plasmid CU1
[6] = system: Staphylococcus aureus; test: Antimicrobial activity against Staphylococcus aureus RN4220; type: functional
[7] = system: Staphylococcus aureus; test: Antimicrobial activity against Staphylococcus aureus RN4220 harboring plasmid VGA
[8] = system: Staphylococcus aureus; test: Antimicrobial activity against Staphylococcus aureus IV20217033 harboring vgaA positive plasmid VGA; type: functional
[9] = system: Staphylococcus aureus; test: Antimicrobial activity against Staphylococcus aureus RN1024; type: functional
[10] = system: Staphylococcus aureus; test: Antimicrobial activity against Staphylococcus aureus RN1024-tms; type: functional
[11] = system: Staphylococcus aureus; test: microbe, parasite or virus in culture; conditions: ATCC 29213
Description: Antimicrobial activity against Staphylococcus aureus ATCC 29213

[12] = system: Staphylococcus aureus; test: Antimicrobial activity against Staphylococcus aureus IV20204009 harboring vgaAv positive Tn5406 transposon; type: functional
[13] = system: Staphylococcus aureus; test: Antimicrobial activity against Staphylococcus aureus IHMA127277 harboring vgaAv positive Tn5406 transposon; type: functional

## C=C[C@]1(C)C[C@@H](OC(=O)CSCCN(CC)CC)[C@]2(C)[C@H](C)CC[C@]3(CCC(=O)[C@H]32)[C@@H](C)[C@@H]1O [TIAMULIN]
[1]
  MIC: 16 µg/mL (≈ 32.4 µM)
[2]
  MIC: > 64 µg/mL
[3]
  MIC: 32 µg/mL (≈ 64.8 µM)
[4]
  MIC: 16 µg/mL (≈ 32.4 µM)
[5]
  MIC: 0.25 µg/mL (≈ 0.506 µM)
[6]
  MIC: 0.5 µg/mL (≈ 1.01 µM)
[7]
  MIC: > 64 µg/mL
[8]
  MIC: > 64 µg/mL
[9]
  MIC: 16 µg/mL (≈ 32.4 µM)
[10]
  MIC: 0.5 µg/mL (≈ 1.01 µM)
[11]
  MIC: 1 µg/mL (≈ 2.03 µM)
[12]
  MIC: 32 µg/mL (≈ 64.8 µM)

## CCC[C@@H]1C[C@@H](C(=O)N[C@@H]([C@H]2O[C@H](SC)[C@H](O)[C@@H](O)[C@H]2O)[C@H](C)Cl)N(C)C1 [CLINDAMYCIN]
[2]
  MIC: 2 µg/mL (≈ 4.71 µM)
[5]
  MIC: 0.06 µg/mL (≈ 0.141 µM)
[6]
  MIC: 0.06 µg/mL (≈ 0.141 µM)
[7]
  MIC: 4 µg/mL (≈ 9.41 µM)
[9]
  MIC: 0.25 µg/mL (≈ 0.588 µM)
[10]
  MIC: 0.06 µg/mL (≈ 0.141 µM)
[11]
  MIC: 0.125 µg/mL (≈ 0.294 µM)

## COc1cc(Cc2cnc(N)nc2N)cc(OC)c1OC [TRIMETHOPRIM]
[2]
  MIC: 2 µg/mL (≈ 6.89 µM)
[5]
  MIC: 2 µg/mL (≈ 6.89 µM)
[6]
  MIC: 2 µg/mL (≈ 6.89 µM)
[7]
  MIC: 2 µg/mL (≈ 6.89 µM)
[9]
  MIC: 2 µg/mL (≈ 6.89 µM)
[10]
  MIC: 2 µg/mL (≈ 6.89 µM)
[11]
  MIC: 2 µg/mL (≈ 6.89 µM)

## CC(=O)NC[C@H]1CN(c2ccc(N3CCOCC3)c(F)c2)C(=O)O1 [LINEZOLID]
[2]
  MIC: 1 µg/mL (≈ 2.96 µM)

## O=C(N[C@H](CO)[C@H](O)c1ccc([N+](=O)[O-])cc1)C(Cl)Cl [CHLORAMPHENICOL]
[2]
  MIC: > 64 µg/mL
[5]
  MIC: > 64 µg/mL
[6]
  MIC: 8 µg/mL (≈ 24.8 µM)
[7]
  MIC: 8 µg/mL (≈ 24.8 µM)
[9]
  MIC: 8 µg/mL (≈ 24.8 µM)
[10]
  MIC: 8 µg/mL (≈ 24.8 µM)
[11]
  MIC: 16 µg/mL (≈ 49.5 µM)

## CCC[C@@H]1C[C@@H](C(=O)N[C@@H]([C@H]2O[C@H](SC)[C@H](O)[C@@H](O)[C@H]2O)[C@@H](C)O)N(C)C1 [LINCOMYCIN]
[2]
  MIC: 32 µg/mL (≈ 78.7 µM)
[5]
  MIC: 0.5 µg/mL (≈ 1.23 µM)
[6]
  MIC: 0.5 µg/mL (≈ 1.23 µM)
[7]
  MIC: 32 µg/mL (≈ 78.7 µM)
[9]
  MIC: 8 µg/mL (≈ 19.7 µM)
[10]
  MIC: 1 µg/mL (≈ 2.46 µM)
[11]
  MIC: 2 µg/mL (≈ 4.92 µM)

## C/C(=C\C(=O)OCCCCCCCCC(=O)O)C[C@@H]1OC[C@H](C[C@@H]2O[C@H]2[C@@H](C)[C@H](C)O)[C@@H](O)[C@H]1O [MUPIROCIN]
[6]
  MIC: ≤ 0.06 µg/mL
[9]
  MIC: 0.25 µg/mL (≈ 0.499 µM)
[10]
  MIC: 0.25 µg/mL (≈ 0.499 µM)
[11]
  MIC: 0.25 µg/mL (≈ 0.499 µM)

## CCN(CC)CCS(=O)(=O)[C@@H]1CCN2C(=O)c3coc(n3)CC(=O)C[C@H](O)/C=C(C)/C=C/CNC(=O)/C=C/[C@@H](C)[C@@H](C(C)C)OC(=O)[C@@H]12 [DALFOPRISTIN]
[2]
  MIC: 64 µg/mL (≈ 92.6 µM)
[5]
  MIC: 4 µg/mL (≈ 5.79 µM)
[6]
  MIC: 4 µg/mL (≈ 5.79 µM)
[7]
  MIC: 32 µg/mL (≈ 46.3 µM)
[9]
  MIC: 64 µg/mL (≈ 92.6 µM)
[10]
  MIC: 8 µg/mL (≈ 11.6 µM)
[11]
  MIC: 8 µg/mL (≈ 11.6 µM)

## CC[C@H]1OC(=O)[C@H](C)[C@@H](O[C@H]2C[C@@](C)(OC)[C@@H](O)[C@H](C)O2)[C@H](C)[C@@H](O[C@@H]2O[C@H](C)C[C@H](N(C)C)[C@H]2O)[C@](C)(O)C[C@@H](C)C(=O)[C@H](C)[C@@H](O)[C@]1(C)O [ERYTHROMYCIN]
[2]
  MIC: 0.125 µg/mL (≈ 0.17 µM)
[5]
  MIC: 0.25 µg/mL (≈ 0.341 µM)
[6]
  MIC: 0.25 µg/mL (≈ 0.341 µM)
[7]
  MIC: 0.25 µg/mL (≈ 0.341 µM)
[9]
  MIC: 0.25 µg/mL (≈ 0.341 µM)
[10]
  MIC: 0.25 µg/mL (≈ 0.341 µM)
[11]
  MIC: 0.5 µg/mL (≈ 0.681 µM)

## C=C[C@]1(C)C[C@@H](OC(=O)CS[C@@H]2C[C@H]3CC[C@@H](C2)N3C)[C@]2(C)[C@H](C)CC[C@]3(CCC(=O)[C@H]32)[C@@H](C)[C@@H]1O [RETAPAMULIN]
[1]
  MIC: 4 µg/mL (≈ 7.73 µM)
[2]
  MIC: 32 µg/mL (≈ 61.8 µM)
[3]
  MIC: 4 µg/mL (≈ 7.73 µM)
[4]
  MIC: 2 µg/mL (≈ 3.86 µM)
[13]
  MIC: 2 µg/mL (≈ 3.86 µM)
[6]
  MIC: ≤ 0.06 µg/mL
[7]
  MIC: 32 µg/mL (≈ 61.8 µM)
[8]
  MIC: 64 µg/mL (≈ 124 µM)
[9]
  MIC: 2 µg/mL (≈ 3.86 µM)
[10]
  MIC: ≤ 0.06 µg/mL
[11]
  MIC: ≤ 0.06 µg/mL
[12]
  MIC: 2 µg/mL (≈ 3.86 µM)

## CC[C@H]1NC(=O)[C@@H](NC(=O)c2ncccc2O)[C@@H](C)OC(=O)[C@H](c2ccccc2)NC(=O)[C@@H]2CC(=O)[C@H](CS[C@@H]3CN4CCC3CC4)CN2C(=O)[C@H](Cc2ccc(N(C)C)cc2)N(C)C(=O)[C@@H]2CCCN2C1=O [QUINUPRISTIN] ({Picolinoyl(3-OH)}-T[dAbu]P[NMePhe(4-NMe2)][X1][Phg]; ester 1-C)
[2]
  MIC: 1 µg/mL (≈ 0.978 µM)
[5]
  MIC: 4 µg/mL (≈ 3.91 µM)
[6]
  MIC: 4 µg/mL (≈ 3.91 µM)
[7]
  MIC: 4 µg/mL (≈ 3.91 µM)
[9]
  MIC: 4 µg/mL (≈ 3.91 µM)
[10]
  MIC: 4 µg/mL (≈ 3.91 µM)
[11]
  MIC: 4 µg/mL (≈ 3.91 µM)

## GENTAMICIN
[6]
  MIC: 1 µg/mL
[9]
  MIC: > 64 µg/mL
[10]
  MIC: > 64 µg/mL

## CO[C@H]1/C=C/O[C@@]2(C)Oc3c(C)c(O)c4c(O)c(c(/C=N/N5CCN(C)CC5)c(O)c4c3C2=O)NC(=O)/C(C)=C\C=C\[C@H](C)[C@H](O)[C@@H](C)[C@@H](O)[C@@H](C)[C@H](OC(C)=O)[C@@H]1C [RIFAMPIN]
[6]
  MIC: ≤ 0.06 µg/mL
[9]
  MIC: > 64 µg/mL
[10]
  MIC: > 64 µg/mL
[11]
  MIC: < 0.06 µg/mL

## C[C@H]1COc2c(N3CCN(C)CC3)c(F)cc3c(=O)c(C(=O)O)cn1c23.C[C@H]1COc2c(N3CCN(C)CC3)c(F)cc3c(=O)c(C(=O)O)cn1c23.O [LEVOFLOXACIN]
[2]
  MIC: 0.125 µg/mL
[5]
  MIC: 0.125 µg/mL
[6]
  MIC: 0.125 µg/mL
[7]
  MIC: 0.125 µg/mL
[9]
  MIC: 16 µg/mL
[10]
  MIC: 32 µg/mL
[11]
  MIC: 0.125 µg/mL

## CN(C)[C@@H]1C(O)=C(C(N)=O)C(=O)[C@@]2(O)C(O)=C3C(=O)c4c(O)cccc4[C@@](C)(O)[C@H]3C[C@@H]12 [TETRACYCLINE]
[2]
  MIC: 0.125 µg/mL (≈ 0.281 µM)
[5]
  MIC: 0.25 µg/mL (≈ 0.563 µM)
[6]
  MIC: 0.25 µg/mL (≈ 0.563 µM)
[9]
  MIC: 64 µg/mL (≈ 144 µM)
[10]
  MIC: 64 µg/mL (≈ 144 µM)
[11]
  MIC: 0.5 µg/mL (≈ 1.13 µM)
